Experimental data from patent US7767646B2, “Methods of screening for compounds that modulate TAFIa activity, compounds, and methods of using the compounds” (American Diagnostica, Inc., priority 2002, dated 2010).
“Also recorded” adds a separate entry of the source. Where two headings read alike, the source gives them in different places. Each block holds one compound with its values, some of them ahead of it.

How the values were obtained:
Format in all cases: biochemical
TAFI = biological target: T1, TAFI (Homo sapiens, UniProt Q96IY4); assay: TAFI activation by thrombin/thrombomodulin, SDS-PAGE; conditions: aliquots after 20 minutes, SDS-PAGE (FIG. 4)
T1 construct: purchased Hematological Associates (Essex Junction, Vt.)
T1 sequence (Q96IY4 23-423 limits assumed): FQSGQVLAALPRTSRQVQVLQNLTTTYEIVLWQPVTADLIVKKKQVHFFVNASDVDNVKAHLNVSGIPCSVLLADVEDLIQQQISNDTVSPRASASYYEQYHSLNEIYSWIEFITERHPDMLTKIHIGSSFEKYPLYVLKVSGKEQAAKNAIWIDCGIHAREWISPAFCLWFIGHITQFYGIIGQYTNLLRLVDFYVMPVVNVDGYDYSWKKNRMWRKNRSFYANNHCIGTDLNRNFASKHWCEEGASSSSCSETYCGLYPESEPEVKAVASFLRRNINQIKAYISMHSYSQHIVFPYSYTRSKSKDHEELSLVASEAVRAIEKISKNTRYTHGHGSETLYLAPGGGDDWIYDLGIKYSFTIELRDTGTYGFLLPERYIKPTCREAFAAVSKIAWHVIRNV
Method: After 20 minutes, aliquots were removed and analyzed by SDS-PAGE. Lane 1. Acetylsalicylic acid; 2. Salicylic acid; 3. 4-hydroxybenzoic acid; 4. 2-hydroxybenzoic acid (salicyluric acid); 5. Ibuprofen; 6. Acetominophen; 7 Control with no addition; 8. TAFI.
Not only, then, do SA and SU inhibit enzyme activity, they also retard the generation of TAFIa. Without being bound by any theory, this provides a dual mechanism by which fibrinolysis is enhanced during high dose aspirin therapy. The proposed pathways by which aspirin and its major metabolites SA and SU enhance fibrinolysis through inhibition of TAFI is presented in FIG. 5. […] Undas et al., 2001, Blood 98:2423-31.

TAFIa [1] = biological target: T2, TAFIa (Homo sapiens, UniProt Q96IY4); assay: TAFIa carboxypeptidase activity, ActiFLUOR TAFIa fluorescence-based assay; design: purchased American Diagnostica Inc. (Greenwich, Conn.) 3874TAFIa; conditions: for effect on TAFIa carboxypeptidase activity (residual TAFIa activity): incubation 1 hour at room temperature, various concentrations
T2 sequence (Q96IY4 115-423): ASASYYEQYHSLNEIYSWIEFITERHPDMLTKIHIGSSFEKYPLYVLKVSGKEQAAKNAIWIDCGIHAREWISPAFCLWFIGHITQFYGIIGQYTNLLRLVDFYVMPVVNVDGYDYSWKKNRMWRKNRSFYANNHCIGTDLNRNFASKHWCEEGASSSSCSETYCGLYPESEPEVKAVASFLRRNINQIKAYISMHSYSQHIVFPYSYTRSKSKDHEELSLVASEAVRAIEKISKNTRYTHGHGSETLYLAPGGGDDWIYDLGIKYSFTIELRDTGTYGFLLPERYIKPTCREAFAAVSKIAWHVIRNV
Method: Residual TAFIa activity was measured using ActiFLUOR TAFIa.
Residual TAFIa activity was measured using ActiFLUOR TAFIa. […] About 60% TAFIa activity is lost at 25 mM SA.
Materials. TAFI was purchased from Hematological Associates (Essex Junction, Vt.) and TAFIa (3874TAFIa) was from American Diagnostica Inc. (Greenwich, Conn.). Carboxypeptidase activity of TAFIa was determined using ACTIFLUOR™ TAFI (#874FX) a fluorescence-based assay from American Diagnostica (Greenwich, Conn.). ASA, SA and SU were obtained from Sigma Chemical Co. (St. Louis, Mo.).
Results. The present inventors have made the surprising discovery that ASA, SA and SU may shift the hemostatic balance toward a profibrinolytic state by inhibition of TAFIa, the major regulator of fibrinolysis. TAFIa was incubated with various concentrations of ASA, SA and SU for one hour, at room temperature. Residual TAFIa activity was measured using ActiFLUOR TAFIa. […] Catella-Lawson and coworkers recently reported that ibuprofen, taken prior to aspirin, blocks the irreversible inhibition of COX-1 by aspirin and abrogates the anti-platelet activity of aspirin. Catella-Lawson, F. et al., 2001, N. Engl. J. Med. 345(25):1809-17. Since ibuprofen has little effect on TAFI, it was reasonable to conclude that ibuprofen taken prior to aspirin would not block the profibrinolytic activity of aspirin caused by TAFI inhibition.

LOX/HRP = assay: Dereplication assay: reaction of LOX/HRP with lysine; conditions: concentrations 5-10 times greater than IC50 for TAFI
Method: Positive hits identified with the ActiScreen TAFI assay were dereplicated to ensure that the inhibition of color development is due to blocking of the first reaction of the linked enzyme system catalyzed by TAFIa and not to inhibition of LOX or HRP.
Compounds L278R and LT32 were tested in the dereplication assay, described above.

Carboxypeptidase N(CPN) = biological target: T3, Carboxypeptidase N(CPN) (Homo sapiens, UniProt P15169); assay: Specificity against Carboxypeptidase N in pooled normal human plasma; conditions: PNP (1:10), serially diluted compound
T3 construct: pooled normal human plasma (PNP) was used as the source of CPN; from tissue; host or cells: pooled normal human plasma (PNP), diluted 1:10
T3 sequence (P15169 21-458): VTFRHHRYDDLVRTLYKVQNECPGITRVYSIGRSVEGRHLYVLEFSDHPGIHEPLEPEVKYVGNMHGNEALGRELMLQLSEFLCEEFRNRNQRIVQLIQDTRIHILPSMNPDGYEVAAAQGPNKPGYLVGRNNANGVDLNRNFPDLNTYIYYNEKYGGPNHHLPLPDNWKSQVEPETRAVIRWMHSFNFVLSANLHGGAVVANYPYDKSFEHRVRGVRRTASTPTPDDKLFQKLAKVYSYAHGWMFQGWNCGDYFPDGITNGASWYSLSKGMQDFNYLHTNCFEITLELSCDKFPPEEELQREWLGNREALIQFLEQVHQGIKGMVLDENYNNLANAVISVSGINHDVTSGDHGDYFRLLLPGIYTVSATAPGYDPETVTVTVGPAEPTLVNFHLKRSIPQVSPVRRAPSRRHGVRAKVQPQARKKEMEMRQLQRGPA
T3 sequence (P22792 22-545 partner): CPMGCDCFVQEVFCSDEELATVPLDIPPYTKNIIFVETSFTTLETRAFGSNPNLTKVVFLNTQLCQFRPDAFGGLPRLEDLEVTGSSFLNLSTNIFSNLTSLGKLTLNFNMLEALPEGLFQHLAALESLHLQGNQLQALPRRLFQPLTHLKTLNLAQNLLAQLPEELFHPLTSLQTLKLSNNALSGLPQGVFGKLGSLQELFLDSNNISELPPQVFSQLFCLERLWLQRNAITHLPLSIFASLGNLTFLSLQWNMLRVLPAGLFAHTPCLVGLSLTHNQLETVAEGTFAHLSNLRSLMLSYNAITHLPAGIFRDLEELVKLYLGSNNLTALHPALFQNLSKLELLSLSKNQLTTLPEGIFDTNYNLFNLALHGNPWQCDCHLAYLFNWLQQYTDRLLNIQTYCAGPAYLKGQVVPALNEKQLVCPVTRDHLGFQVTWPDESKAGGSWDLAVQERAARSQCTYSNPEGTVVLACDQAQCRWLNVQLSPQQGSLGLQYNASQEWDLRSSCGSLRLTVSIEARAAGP
Method: L278R was also tested for specificity against Carboxypeptidase N(CPN). CPN is the constituitively active carboxypeptidase B-like enzyme in plasma. In this study, pooled normal human plasma (PNP) was used as the source of CPN. The specificity studies were performed by adding PNP (1:10), ActiScreen developer and serially diluted test compound into microtiter wells. Inhibition of color development was an indication of inhibitory activity towards CPN.

TAFIa [2] = biological target: T2, TAFIa; assay: ActiScreen TAFI HTS assay (TAFIa carboxypeptidase, hippuryl-L-lysine/LOX/HRP); design: made in house; host or cells: native human TAFI (not recombinant)
Method: The activity of the chemical compounds was assessed in the ActiScreen® TAFI HTS assay, the principle of which is shown below.
The assay is run by mixing TAFIa and test compound in microtiter plate wells. “TAFI developer” is then added to start the reaction which is run at room temperature. The TAFI developer is formulated with hippuryl-L-lysine, lysine oxidase, horseradish peroxidase and ortho-phenylene-diamine. Hippuryl-L-lysine is converted by TAFIa to hippuric acid and L-lysine. Lysine-Oxidase (LOX) converts the lysine to 6-amino-2-oxo-hexanoic acid and hydrogen peroxide. The hydrogen peroxide is used along with ortho-phenylene-diamine […] as substrate for horseradish peroxidase. The reaction produces a yellow color that was monitored for Vmax in a spectrophotometer (SpectroMax 190, Molecular Devices, Sunnyvale, Calif.) in the kinetic mode at 450 nm.
The assay can also be run as an endpoint reaction in which the enzymatic reaction is stopped at a selected point in time with 0.5 M sulphuric acid. The resulting color is read at 490 nm. A TAFI inhibitor will block the first reaction in the cascade in which TAFIa converts hippuryl-L-lysine to hippuric acid and lysine, which finally results in a decrease in Vmax or OD 490 nm relative to control reaction without addition of test compound. The assay has been designed to be run in final concentrations of DMSO of up to 20%. A known inhibitor of TAFIa carboxypeptidase activity, potato tuber carboxypeptidase inhibitor (PTCI), is used as a positive control.
Positive hits were selected based upon the ability of compounds to inhibit carboxypeptidase activity of TAFIa, as measured in the ActiScreen assay. The major criterion for selection of “hits” was based on their potency, as determined by the concentration of compound that inhibits the activity of TAFIa in the Actiscreen TAFI assay by 50% (“IC50”).

TAFIa [3] = biological target: T2, TAFIa; assay: TAFIa inhibition with Actichrome 874 TAFI Developer (Vmax); design: purchased American Diagnostica Inc. (Greenwich, Conn.) 3874TAFIa; conditions: different concentrations, Vmax (FIG. 6)
Method: Different concentrations of gentisic acid (GA) were incubated with TAFIa and Actichrome 874 TAFI Developer. TAFI activity (Vmax) was determined.

SMILES: CC(=O)Oc1ccccc1C(=O)O [ASA, acetylsalicylic acid]
- effect on activation of TAFI to TAFIa by thrombin/thrombomodulin (TAFI): did not appear to have a significantly effect
- concentration at which significant inhibition of TAFI activity occurs (TAFIa [1]; incubation 1 hour at room temperature (FIG. 1)): ~600 µg/mL
- effect on TAFIa carboxypeptidase activity (residual TAFIa activity) (TAFIa [1]): directly inhibited; also recorded: inhibited in a dose-dependent manner

SMILES: NCCCNC(=O)OCCNC(=O)c1ccccc1O [L278R, 2-(2-hydroxybenzoylamino)ethyl N-(3-aminopropyl)carbamate]
- effect on reaction rate (Vmax) of LOX/HRP with lysine (LOX/HRP): Neither of the compounds had a significant effect
- inhibition of CPN (Carboxypeptidase N(CPN)): did not inhibit CPN
- IC50 (TAFIa [2]; TAFIa preincubated with compound 1 hour at 4° C. prior to assay): 890 µM
- type of inhibition of TAFIa (TAFIa [2]; no preincubation): competitive type inhibitor
- IC50 (TAFIa [2]; no preincubation, assay as in Example 3): 1540 µM
- type of inhibition of TAFIa (TAFIa [2]; preincubated 1 hour at 4° C.): non-competitive-type inhibitor

SMILES: O=C(N[C@H](CO)Cc1ccccc1)c1cc(O)ccc1O [JV59, N-[(S)-1-hydroxy-3-phenyl-2-propyl]-2,5-dihdroxybenzamide]
- IC50 (TAFIa [2]): 44 µM

SMILES: O=C(NCCNC(=O)c1cc(OCc2ccccc2)ccc1OCc1ccccc1)OCCNC(=O)c1ccccc1O [LT32]
- effect on reaction rate (Vmax) of LOX/HRP with lysine (LOX/HRP): Neither of the compounds had a significant effect
- IC50 (TAFIa [2]): 225 µM
- type of inhibition of TAFIa (TAFIa [2]; no preincubation): competitive inhibitor

Continued, in another order:

- effect on TAFIa carboxypeptidase activity (residual TAFIa activity) (TAFIa [1]): little inhibitory effect
SMILES: CC(=O)Nc1ccc(O)cc1 [acetominophen]

- effect on activation of TAFI to TAFIa by thrombin/thrombomodulin (TAFI): inhibit activation of TAFI to TAFIa
- effect on activation of TAFI to TAFIa by thrombin/thrombomodulin (TAFI; listed as 2-hydroxybenzoic acid (salicyluric acid)): inhibit the activation of TAFI
- rank of potency as TAFIa inhibitor (TAFIa [1]; SU vs SA vs ASA, 1 hour at room temperature): most effective inhibitor
SMILES: O=C(O)CNC(=O)c1ccccc1O [SU, salicyluric acid (2-hydroxyhippuric acid)]
- effect on TAFIa carboxypeptidase activity (residual TAFIa activity) (TAFIa [1]): directly inhibited; also recorded: inhibited in a dose-dependent manner

- effect on activation of TAFI to TAFIa by thrombin/thrombomodulin (TAFI): inhibit activation of TAFI to TAFIa
- effect on activation of TAFI to TAFIa by thrombin/thrombomodulin (TAFI; listed as salicylic acid): inhibit the activation of TAFI
- TAFIa activity lost (TAFIa [1]; 25 mM, room temperature, 1 hour (FIG. 3)): About 60%
SMILES: O=C(O)c1ccccc1O [SA, salicylic acid]
- effect on TAFIa carboxypeptidase activity (residual TAFIa activity) (TAFIa [1]): directly inhibited; also recorded: inhibited in a dose-dependent manner

- type of inhibition of TAFIa (TAFIa [3]): competitive inhibition
SMILES: O=C(O)c1cc(O)ccc1O [gentisic acid]

- effect on TAFIa carboxypeptidase activity (residual TAFIa activity) (TAFIa [1]): little inhibitory effect
SMILES: CC(C)Cc1ccc(C(C)C(=O)O)cc1 (stereo not drawn) [ibuprofen]
